This is an account of results in the supplement of paper PMC11208160.
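Note: IS621 bridge recombinase in Escherichia coli cells against a fixed T5 target plasmid.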

A short description of this series: recombinant UMI read abundance after kanamycin selection (control-corrected) (log10(CPM+1)); higher = more efficient recombination; extreme values may be limits of the assay; sequences stand for … in AGTGCAGAGAAAATCGGCCAGTTTTCTCTGCCTGCAGTCCGCATGCCGTGGGACCCCTTGGGTTCTAACCTGTTGCCTAGATTTATGCAGCGGACTGCCTTTCTCCCAAAGTGATAAACCGG…AGGTTGGTTTCACT; site = the 11-nt donor. In outline:
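Two replicates each of selected and unselected plating were used in this pooled Escherichia coli screen of donor and donor-binding-loop pairs for the IS621 bridge recombinase. Selection was with IPTG (0.07 mM) and kanamycin. Counts of recombinant UMIs, amplified across the donor–target junction, were converted to CPM, averaged, scaled by control-derived factors and reported as log10(CPM+1).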
As for “TAGGAATCATGGACCGGTTTTCCCGGTAATCCGTATTTGCG (site TAGGAAACTCG)”, the “recombinant UMI read abundance (log10)” value was determined as 1.27.
In the case of “TAGGAATCATGGACCGGTTTTCCCGGTAATCCGTATTTGCG (site TAGGAACCTCG)”, the “recombinant UMI read abundance (log10)” value worked out at 0.
As to “TAGGAATCATGGACCGGTTTTCCCGGTAATCCGTATTTGCG (site TAGGAAGCTCG)”, the “recombinant UMI read abundance (log10)” value worked out at 0.419.
The same measure for “TAGGAATCATGGACCGGTTTTCCCGGTAATCCGTATTTGCG (site TAGGAATCTAG)”: 1.42; for “TAGGAATCATGGACCGGTTTTCCCGGTAATCCGTATTTGCG (site TAGGAATCTCA)”: 2.6; for “TAGGAATCATGGACCGGTTTTCCCGGTAATCCGTATTTGCG (site TAGGAATCTCC)”: 1.39.
Next, “TAGGAATCATGGACCGGTTTTCCCGGTAATCCGTATTTGCG (site TAGGAATCTCG)”: 2.72.
Next, “TAGGAATCATGGACCGGTTTTCCCGGTAATCCGTATTTGCG (site TAGGAATCTCT)”: 2.03; “TAGGAATCATGGACCGGTTTTCCCGGTAATCCGTATTTGCG (site TAGGAATCTGG)”: 2.08; “TAGGAATCATGGACCGGTTTTCCCGGTAATCCGTATTTGCG (site TAGGAATCTTG)”: 1.85.
Take “TAGGAATCATGGACCGGTTTTCCCGGTAATCCGTATTTGCG (site TAGGACTCTCG)”: the “recombinant UMI read abundance (log10)” value was 0.892.
The same measure for “TAGGAATCATGGACCGGTTTTCCCGGTAATCCGTATTTGCG (site TAGGAGTCTCG)”: 1.94.
The same measure for “TAGGAATCATGGACCGGTTTTCCCGGTAATCCGTATTTGCG (site TAGGATTCTCG)”: 1.39; for “TAGGAATCATGGACCGGTTTTCCCGGTAATCCGTATTTGCG (site TAGGCATCTCG)”: 1.14.
The same measure for “TAGGAATCATGGACCGGTTTTCCCGGTAATCCGTATTTGCG (site TAGGGATCTCG)”: 1.43.
With “TAGGAATCATGGACCGGTTTTCCCGGTAATCCGTATTTGCG (site TAGGTATCTCG)”, the “recombinant UMI read abundance (log10)” value is 1.63.
The same measure for “TAGGAATCATGGACCGGTTTTCCCGGTAATCCGTATTTGCG (site TAGTAATCTCG)”: 1.71.
The same measure for “TAGGAATCATGGACCGGTTTTCCCGGTAATCCGTATTTGCG (site TATGAATCTCG)”: 1.63; for “TAGGAATCATGGACCGGTTTTCCCGGTAATCCGTATTTGCG (site TCGGAATCTCG)”: 1.51.
For the sequence “TAGGAATCATGGACCGGTTTTCCCGGTAATCCGTATTTGCG (site TGGGAATCTCG)”, the “recombinant UMI read abundance (log10)” value was found to be 1.02.
The same measure for “TAGGAATCATGGACCGGTTTTCCCGGTAATCCGTATTTGCG (site TTGGAATCTCG)”: 1.47; for “TAGGAATCATGGACCGGTTTTCCCGGTAATCCGTATTTGCT (site TAGGAATCTAG)”: 2.58; for “TAGGAATCATGGACCGGTTTTCCCGGTAATCCGTATTTGCT (site TAGGAATCTCG)”: 1.1.
Turning to “TAGGAATCATGGACCGGTTTTCCCGGTAATCCGTATTTGCT (site TAGGAATCTGG)”, the “recombinant UMI read abundance (log10)” value was 2.28.
Next, “TAGGAATCATGGACCGGTTTTCCCGGTAATCCGTATTTGCT (site TAGGAATCTTG)”: 1.5.
Next, “TAGGATGCATGGACCGGTTTTCCCGGTAATCCGTATTTGGC (site TAGGATGCTGC)”: 3.08.
For the sequence “TAGGCAACATGGACCGGTTTTCCCGGTAATCCGTATTTGAA (site TAGGCAACTTT)”, the “recombinant UMI read abundance (log10)” value came to 0.0147.
As for “TAGGGACCATGGACCGGTTTTCCCGGTAATCCGTATTTGGT (site TAGGGACCTAC)”, the “recombinant UMI read abundance (log10)” value is 0.00346.
As to “TAGGTAACATGGACCGGTTTTCCCGGTAATCCGTATTTGAC (site TAGGTAACTGT)”, the “recombinant UMI read abundance (log10)” value was 2.17.
Next, “TAGGTGTCATGGACCGGTTTTCCCGGTAATCCGTATTTGCA (site TAGGTGTCTTG)”: 3.29; “TAGGTTCCATGGACCGGTTTTCCCGGTAATCCGTATTTGCC (site TAGGTTCCTGG)”: 1.32; “TAGTAAGCATGGACCGGTTTTCCCGGTAATCCGTATTTGTA (site TAGTAAGCTTA)”: 2.8.
The same measure for “TAGTACCCATGGACCGGTTTTCCCGGTAATCCGTATTTGGT (site TAGTACCCTAC)”: 0.271.
Next, “TAGTACTCATGGACCGGTTTTCCCGGTAATCCGTATTTGCA (site TAGTACTCTTG)”: 2.61; “TAGTATACATGGACCGGTTTTCCCGGTAATCCGTATTTGAC (site TAGTATACTGT)”: 2.58; “TAGTATACATGGACCGGTTTTCCCGGTAATCCGTATTTGCA (site TAGAATACTTG)”: 1.23.
On to “TAGTATACATGGACCGGTTTTCCCGGTAATCCGTATTTGCA (site TAGCATACTTG)”, for which the “recombinant UMI read abundance (log10)” value was found to be 1.11.
Next, “TAGTATACATGGACCGGTTTTCCCGGTAATCCGTATTTGCA (site TAGGATACTTG)”: 0.222.
Next, “TAGTATACATGGACCGGTTTTCCCGGTAATCCGTATTTGCA (site TAGTATACTTG)”: 2.25.
Next, “TAGTATCCATGGACCGGTTTTCCCGGTAATCCGTATTTGCA (site TAGTATCCTTG)”: 0.736.
In the case of “TAGTGATCATGGACCGGTTTTCCCGGTAATCCGTATTTGCA (site TAGTGATCTTG)”, the “recombinant UMI read abundance (log10)” value is 3.02.
The same measure for “TAGTGGGCATGGACCGGTTTTCCCGGTAATCCGTATTTGTC (site TAGTGGGCTGA)”: 2.31; for “TAGTTGCCATGGACCGGTTTTCCCGGTAATCCGTATTTGCC (site TAGTTGCCTGG)”: 0.
“TAGTTGGCATGGACCGGTTTTCCCGGTAATCCGTATTTGTG (site TAATTGGCTCA)”: the “recombinant UMI read abundance (log10)” value was found to be 0.0238.
Turning to “TAGTTGGCATGGACCGGTTTTCCCGGTAATCCGTATTTGTG (site TACTTGGCTCA)”, the “recombinant UMI read abundance (log10)” value worked out at 0.0102.
Next, “TAGTTGGCATGGACCGGTTTTCCCGGTAATCCGTATTTGTG (site TAGTTGGCTCA)”: 0.476; “TAGTTGGCATGGACCGGTTTTCCCGGTAATCCGTATTTGTG (site TATTTGGCTCA)”: 0.00327; “TAGTTTCCATGGACCGGTTTTCCCGGTAATCCGTATTTGAA (site TAGTTTCCTTT)”: 0.228.
Take “TAGTTTGCATGGACCGGTTTTCCCGGTAATCCGTATTTGCC (site TAGTTTGCTGG)”: the “recombinant UMI read abundance (log10)” value is 0.
Next, “TATACCCCATGGACCGGTTTTCCCGGTAATCCGTATTTGAC (site TATACCCCTGT)”: 1.5; “TATACTACATGGACCGGTTTTCCCGGTAATCCGTATTTGTG (site TATACTACTCA)”: 0.195.
The same measure for “TATATCGCATGGACCGGTTTTCCCGGTAATCCGTATTTGAT (site TATATCGCTAT)”: 0.63; for “TATATGGCATGGACCGGTTTTCCCGGTAATCCGTATTTGGT (site TATATGGCTAC)”: 0.39; for “TATATGGCATGGACCGGTTTTCCCGGTAATCCGTATTTGTT (site TATATGGCTAA)”: 0.36.
The same measure for “TATCAGGCATGGACCGGTTTTCCCGGTAATCCGTATTTGTG (site TATCAGGCTCA)”: 0.113; for “TATCATCCATGGACCGGTTTTCCCGGTAATCCGTATTTGGT (site TATCATCCTAC)”: 0.0117.
Turning to “TATCCCGCATGGACCGGTTTTCCCGGTAATCCGTATTTGTT (site TATCCCGCTAA)”, the “recombinant UMI read abundance (log10)” value worked out at 0.479.
Next, “TATCTTACATGGACCGGTTTTCCCGGTAATCCGTATTTGTA (site TATCTTACTTA)”: 0.0229; “TATGAATCATGGACCGGTTTTCCCGGTAATCCGTATTTGCC (site TATGAATCTGG)”: 1.12; “TATGAATCATGGACCGGTTTTCCCGGTAATCCGTATTTGCG (site TAAGAATCTCG)”: 1.85.
The same measure for “TATGAATCATGGACCGGTTTTCCCGGTAATCCGTATTTGCG (site TACGAATCTCG)”: 2.23.
The same measure for “TATGAATCATGGACCGGTTTTCCCGGTAATCCGTATTTGCG (site TAGGAATCTCG)”: 0.768; for “TATGAATCATGGACCGGTTTTCCCGGTAATCCGTATTTGCG (site TATGAATCTCG)”: 2.18; for “TATGACCCATGGACCGGTTTTCCCGGTAATCCGTATTTGAG (site TATGACCCTCT)”: 0.00635.
With “TATGAGCCATGGACCGGTTTTCCCGGTAATCCGTATTTGGA (site TATGAGCCTTC)”, the “recombinant UMI read abundance (log10)” value stood at 0.00722.
Consider “TATGCGGCATGGACCGGTTTTCCCGGTAATCCGTATTTGCT (site TATGCGGCTAG)”, for which the “recombinant UMI read abundance (log10)” value worked out at 0.532.
Next, “TATGCGGCATGGACCGGTTTTCCCGGTAATCCGTATTTGCT (site TCTGCGGCTAG)”: 0.00356; “TATGCGGCATGGACCGGTTTTCCCGGTAATCCGTATTTGCT (site TGTGCGGCTAG)”: 0.029.
